Measured values: patent US20250000834A1, “COMPOSITIONS AND METHODS FOR TARGETING GPCR FOR THE PREVENTION AND TREATMENT OF PAIN” (Duke University, priority 2021, published 2025)

Tests used:
[1] = target: T1, hGPR37L1 (Homo sapiens, UniProt O60883); assay: cAMP BRET assay in HEK293 cells co-transfected with GPR37L1 and cAMP BRET cDNAs; format: cell-based; settings: 10 nM
T1 sequence (O60883 26-481): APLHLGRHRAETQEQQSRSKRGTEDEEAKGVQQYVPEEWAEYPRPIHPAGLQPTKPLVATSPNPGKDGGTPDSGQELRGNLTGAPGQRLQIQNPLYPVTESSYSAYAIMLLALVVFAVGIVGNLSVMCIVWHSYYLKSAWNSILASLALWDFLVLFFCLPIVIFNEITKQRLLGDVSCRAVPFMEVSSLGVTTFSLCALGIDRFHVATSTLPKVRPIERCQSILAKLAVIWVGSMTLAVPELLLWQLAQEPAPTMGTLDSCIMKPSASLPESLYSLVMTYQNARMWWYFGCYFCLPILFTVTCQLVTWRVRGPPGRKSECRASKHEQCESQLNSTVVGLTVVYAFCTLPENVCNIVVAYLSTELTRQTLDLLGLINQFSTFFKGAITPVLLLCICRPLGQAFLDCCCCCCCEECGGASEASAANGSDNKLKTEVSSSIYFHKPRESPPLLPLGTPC
Experimental: cAMP BRET assay: To detect cAMP change after GPCR37L1 activation, we transfected a Nano-lantern cAMP plasmid (1 μg) and human GPR37L1-tango plasmid (1 μg) into HEK-293 cells. BRET activity was measured upon the addition of 100 μl/well for a final concentration of 10 μM Coelenterazine (Santa Cruz Biotechnology, Dallas, TX), 10 nM MaR1, DHA or vehicle, and 100 μM forskolin (Enzo Life Sciences (Farmingdale, NY), #BML-CN100). The luminescent activity was measured using an Infinite F200 Pro Illuminometer (Tecan Trading AG, Switzerland). The luminescent activity was normalized to basal signal levels.
(§1) Eight different concentrations of compounds ranging from 0.1 nM to 100 nM were tested.

[2] = test system: GPR37L1; assay: Lipid overlay assay on MaR1-coated PVDF membrane with mouse DRG lysates; format: binding; settings: Gpr37l1 KO DRG lysate
Experimental: (§2) Lipids overlay assay: Lipids membrane coating and protein overlay assay were performed as previously described (S. Dowler, et al., Protein lipid overlay assay. Sci STKE 2002, p 16 (2002)). […] Compound-coated membranes were dried and blocked with 1% BSA. The coated membranes were incubated with lysates obtained from hGPR37L1-transfected HEK293 cells or mouse DRG lysate from WT or Gpr37l1 KO mice for 2 hours, followed by detection using an anti-GRP37L1 antibody (Bioss (Woburn, MA), Rabbit, 1:1000, #bs-15390R) or anti-flag antibody (Cell Signaling Technology (Danvers, MA), Rabbit, 1:1000, #14793). Blots were further incubated with an HRP-conjugated secondary anti-rabbit antibody (Jackson ImmunoResearch Laboratories (West Grove, PA), raised in donkey, 1:5000), developed in ECL solution (Pierce Biotechnology, Waltham, MA), and the signal was visualized from ChemiDoc XRS (Bio-Rad, Hercules, CA). The signal Intensity was quantified by Image J software (NIH).
(§3) To confirm whether DRG-expressed GPR37L1 would also interact with MaR1, a lipid overlay assay was performed on MaR1-coated PVDF membrane using DRG lysates from WT or Gpr37l1 KO mice. To determine dose-dependent binding, MaR1 was coated at the concentrations of 0.01 nM, 0.1 nM, 1 nM, and 10 nM.

[3] = target: T2, GPR37L1 (Mus musculus, UniProt Q99JG2); assay: as above; format: binding; settings: WT DRG lysate; MaR1 coated at 10 nM
T2 construct: from tissue; host or cells: mouse dorsal root ganglia (DRG)
T2 sequence (Q99JG2 25-481): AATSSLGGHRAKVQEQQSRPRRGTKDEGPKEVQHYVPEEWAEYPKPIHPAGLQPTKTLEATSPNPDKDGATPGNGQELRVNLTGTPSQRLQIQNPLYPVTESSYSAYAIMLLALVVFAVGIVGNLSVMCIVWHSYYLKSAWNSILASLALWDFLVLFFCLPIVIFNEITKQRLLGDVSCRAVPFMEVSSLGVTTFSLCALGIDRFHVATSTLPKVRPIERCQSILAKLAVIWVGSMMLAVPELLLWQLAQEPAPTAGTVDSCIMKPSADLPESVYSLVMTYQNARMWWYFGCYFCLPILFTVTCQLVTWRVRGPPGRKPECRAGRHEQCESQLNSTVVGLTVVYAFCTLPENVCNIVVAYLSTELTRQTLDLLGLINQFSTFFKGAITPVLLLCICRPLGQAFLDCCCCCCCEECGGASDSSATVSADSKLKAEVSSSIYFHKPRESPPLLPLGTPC
Experimental: as §2, §3

[4] = target: T1, hGPR37L1; assay: Beta-arrestin assay (PathHunter hGPR37L1 CHO-K1); format: cell-based; settings: hGPR37L1 ChoK1 cells
Experimental: Beta-arrestin assay: To screen for GPR37L1 ligands, the PathHunter® eXpress GPR37L1 CHO-K1 kit was purchased from Eurofins Discoveryone™ (DiscoverX Solutions for Drug Discovery, Fremont, CA; Cat #93-0378E2ACP1M). CHO-K1 cells express human GPR37L1 and were grown in 96-well plates for 48 hours. Lipid compounds were incubated with the ChoK1 cells for 1 hour at 37° C., and GPR37L1 activation was determined by measuring chemiluminescence using the beta-arrestin 2 (β-arrestin) detection kit (DiscoverX Solutions for Drug Discovery, Fremont, CA). The luminescent activity was measured using an Infinite F200 Pro Illuminometer (Tecan Trading AG, Switzerland).
as §1

[5] = target: T1, hGPR37L1; assay: Lipid overlay assay with lysates of hGPR37L1-transfected HEK293 cells; format: binding; design: expressed in transfected cells; host or cells: HEK293 Flp-In cells
Experimental: as §2
A lipid overlay assay was conducted to reveal any possible binding of these lipid mediators to GPR37L1. hGPR37L1 was FLAG-tagged and expressed in HEK293 cells after hGPR37L1 cDNA transfection; the expressed protein detectable by anti-FLAG antibody (schematic not shown; see U.S. Prov. No. 63/270,198, FIG. 3A).

- inhibition of forskolin-induced cAMP production [1]: significantly inhibited
- binding spot in lipid overlay assay [2]: completely absent
- binding spot in lipid overlay assay [3]: specific binding spot was observed
- potency relative to TX14 in β-arrestin 2 assay [4]: 10 times
- β-arrestin signaling ([4]; 0.1 nM to 100 nM, n=6): 3.64 fold increase
- EC50 ([4]; n=6, read-out: EC50 of β-arrestin response): 0.97 nM
- binding signal in lipid overlay assay ([5]; cell lysate from control mock transfection): no positive signal
- binding signal in lipid overlay assay ([5]; lysate of hGPR37L1 (FLAG) transfected HEK293 cells, anti-FLAG detection): specific binding signal
Structure (SMILES): CC/C=C\C/C=C\C[C@H](O)\C=C/C=C/C=C/[C@H](O)C/C=C\CCC(=O)O [MaR1, Maresin 1]
